Experiments:
[1] = aqueous pH 7 buffer; cited from earlier work
[2] = Example 13: progesterone dissolution from cut devices in 250 mL acetone, HPLC/UV; assay type: physicochemical; settings: individual device
Experimental: The combined mass of each reagent bottle and solid contents was recorded (Mi) and each bottle was then charged with 250 mL of acetone. Reagent bottles were heated to 35° C. in a temperature controlled water bath and stirred using a submersible multipoint stirrer plate.
Reagent bottles were removed from the water bath at times 2, 4.5 and 47.5 hours after the commencement of stirring. All residual water from the temperature controlled water bath was removed from the outside of the container. The total mass of the dissolution vessel, drug product and drug product solution was then recorded (Mf) and the reagent bottles were left at ambient temperature. The initial mass (of components prior to solvent addition) was subtracted from the final mass to give the solvent mass at each time point.
The temperature of each solution of device extracts was recorded at 2.5, 5 and 48 hours after stirring commenced and a 2 mL aliquot of solution was sampled immediately following the temperature reading. The aliquot of extracts were diluted in 100 mL of 50:50 acetonitrile/water and a sample of the diluted solution was filtered into HPLC vials
The mass of solvent was converted to its corresponding volume using the literature density of acetone and equation below.
A progesterone dissolution profile and final content for each implant was be obtained using a HPLC/UV method for progesterone quantification in IVD and CIDR

Dissolution of progesterone, percentage of the dose concentration (1.38 g) ([2]; 2.5 Hours): 100.8%
Dissolution of progesterone, percentage of the dose concentration (1.38 g) ([2]; 5 Hours): 104.1%
Dissolution of progesterone, percentage of the dose concentration (1.38 g) ([2]; 48 Hours): 103.2%
SMILES: CC(=O)[C@H]1CC[C@H]2[C@@H]3CCC4=CC(=O)CC[C@]4(C)[C@H]3CC[C@]12C [Progesterone]
solubility of progesterone [1]: < 100 µg/mL
